What was measured:
Test in all cases: relative viability (nuclei count vs DMSO), 5 days (fraction); higher = more cells survive
[1] = compound: COc1cc2/c(=N/c3ccc(Br)cc3F)nc[nH]c2cc1OCC1CCN(C)CC1 [Vandetanib] + CS(=O)(=O)CCNCc1ccc(-c2ccc3ncnc(Nc4ccc(OCc5cccc(F)c5)c(Cl)c4)c3c2)o1 [Lapatinib] (partner 2 µM)
In short: (§1)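 Relative viability was taken as the ratio of nuclei in treated wells to nuclei in vehicle wells. Lung cancer cell lines in 1536-well plates received compounds by pin tool one day after seeding, either one drug alone or a fixed anchor-drug dose plus five library-drug doses (not always all listed) in √10 steps. Nuclei were counted on 4× images after 5 days of treatment, and values are medians of duplicate plates.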

[2] = compound: C1=CC=C2C(=C1)N=C(S2)C(C#N)C3=NC(=NC=C3)NCCC4=CN=CC=C4 + CC(=O)Nc1cccc(-n2c(=O)n(C3CC3)c(=O)c3c(Nc4ccc(I)cc4F)n(C)c(=O)c(C)c32)c1 [Trametinib] (partner 0.02 µM)
In short: as §1

[3] = compound: C1=CC=C2C(=C1)N=C(S2)C(C#N)C3=NC(=NC=C3)NCCC4=CN=CC=C4 + CC(=O)c1c(C)c2cnc(Nc3ccc(N4CCNCC4)cn3)nc2n(C2CCCC2)c1=O [Palbociclib] (partner 0.5 µM)
In short: as §1

[4] = compound: COc1cc2/c(=N/c3ccc(Br)cc3F)nc[nH]c2cc1OCC1CCN(C)CC1 [Vandetanib] + CCNC(=O)c1noc(-c2cc(C(C)C)c(O)cc2O)c1-c1ccc(CN2CCOCC2)cc1 [Luminespib] (partner 0.01 µM)
In short: as §1

UMC-11
relative viability ([1]; first compound 0.02 µM): 0.816 | relative viability ([1]; first compound 0.06325 µM): 0.961 | relative viability ([1]; first compound 0.2 µM): 0.664 | relative viability ([1]; first compound 0.6325 µM): 0.892 | relative viability ([1]; first compound 2 µM): 1.01 | relative viability ([2]; first compound 0.01581 µM): 0.741 | relative viability ([2]; first compound 0.05 µM): 0.664 | relative viability ([2]; first compound 0.1581 µM): 0.839 | relative viability ([2]; first compound 0.5 µM): 0.831 | relative viability ([3]; first compound 0.005 µM): 0.377 | relative viability ([3]; first compound 0.01581 µM): 0.32 | relative viability ([3]; first compound 0.05 µM): 0.294 | relative viability ([3]; first compound 0.1581 µM): 0.346 | relative viability ([3]; first compound 0.5 µM): 0.31 | relative viability ([4]; first compound 0.02 µM): 1.06 | relative viability ([4]; first compound 0.06325 µM): 1.01 | relative viability ([4]; first compound 0.2 µM): 0.225 | relative viability ([4]; first compound 0.6325 µM): 0.998 | relative viability ([4]; first compound 2 µM): 1.03
